Measured values published in ChEMBL document CHEMBL1201862, “PubChem BioAssay data set” (2004).
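Where inhibition never reached the appropriate level, the endpoint shown equals the highest concentration tested. Otherwise, values were interpolated linearly from a five-concentration, 48-hour dose response in 96-well plates. Abbreviation: GI50, concentration required for 50% inhibition of growth.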 Calls of active or inactive are those of the source. No stated cut-off is given here; in the data, active = GI50 up to about 1.1 µM and inactive = higher.

Key:
Experiment in all cases: growth of human tumour cells (NCI), 48 h
A498 = tested on: A498
A549 = tested on: A549
ACHN = tested on: ACHN
COLO 205 = tested on: COLO 205
EKVX = tested on: EKVX
HCC 2998 = tested on: HCC 2998
HL-60 = tested on: HL-60
HOP-92 = tested on: HOP-92
HT-29 = tested on: HT-29
Hs-578T = tested on: Hs-578T
KM12 = tested on: KM12
MCF7 = tested on: MCF7
MOLT-4 = tested on: MOLT-4
NCI/ADR-RES = tested on: NCI/ADR-RES
OVCAR-3 = tested on: OVCAR-3
OVCAR-4 = tested on: OVCAR-4
OVCAR-5 = tested on: OVCAR-5
SK-MEL-28 = tested on: SK-MEL-28
SK-MEL-5 = tested on: SK-MEL-5
SN12C = tested on: SN12C

Row | SMILES | GI50 (A498) | GI50 (A549) | GI50 (ACHN) | GI50 (COLO 205) | GI50 (EKVX) | GI50 (HCC 2998) | GI50 (HL-60) | GI50 (HOP-92) | GI50 (HT-29) | GI50 (Hs-578T) | GI50 (KM12) | GI50 (MCF7) | GI50 (MOLT-4) | GI50 (NCI/ADR-RES) | GI50 (OVCAR-3) | GI50 (OVCAR-4) | GI50 (OVCAR-5) | GI50 (SK-MEL-28) | GI50 (SK-MEL-5) | GI50 (SN12C)
1 | NCCc1c[nH]c2ccc(OC(=O)C(=O)O)cc12 | > 100 µM (inactive) | > 100 µM (inactive) | > 100 µM (inactive) | > 100 µM (inactive) | > 100 µM (inactive) | > 100 µM (inactive) | 0.302 µM (active) | > 100 µM (inactive) | > 100 µM (inactive) | > 100 µM (inactive) | > 100 µM (inactive) | > 100 µM (inactive) | > 100 µM (inactive) | > 100 µM (inactive) | > 100 µM (inactive) | > 100 µM (inactive) | > 100 µM (inactive) | > 100 µM (inactive) | > 100 µM (inactive) | > 100 µM (inactive)
2 | CC1C(c2ccc3c(c2)OCO3)c2cc3c(cc2OC1N1CCOCC1)OCO3 (stereo not given) | 22.4 µM (inactive) | 26.6 µM (inactive) | 32.6 µM (inactive) | 21.1 µM (inactive) | 37.3 µM (inactive) | 18.2 µM (inactive) | 13.8 µM (inactive) | 16.5 µM (inactive) | 28.7 µM (inactive) | 14.1 µM (inactive) | 20.5 µM (inactive) | 20.8 µM (inactive) | 16.7 µM (inactive) | 15.8 µM (inactive) | 20 µM (inactive) | 28.8 µM (inactive) | 46.2 µM (inactive) | 23.7 µM (inactive) | 17 µM (inactive) | 33.1 µM (inactive)
3 | COc1cc(C2c3cc4c(cc3OC(N3CCCC3)C2C)OCO4)cc(OC)c1OC (stereo not given) | 0.326 µM (active) | 0.989 µM (active) | 1.47 µM (inactive) | 0.433 µM (active) | 3.53 µM (inactive) | 1.34 µM (inactive) | 0.355 µM (active) | 0.973 µM (active) | 0.395 µM (active) | 0.445 µM (active) | 0.322 µM (active) | 0.296 µM (active) | 1.08 µM (active) | 0.316 µM (active) | 0.221 µM (active) | 2.31 µM (inactive) | 1.09 µM (active) | 5.43 µM (inactive) | 0.344 µM (active) | 0.757 µM (active)
4 | CCCCCCCCCCCCC(=O)OC(c1cnco1)c1nc(C(O)CC(O)C(O)C(C)O)co1 (stereo not given) | 20.9 µM (inactive) | 0.264 µM (active) | 1.45 µM (inactive) | 0.273 µM (active) | 11.8 µM (inactive) | 1.31 µM (inactive) | 0.849 µM (active) | 1.34 µM (inactive) | 0.351 µM (active) | 1.53 µM (inactive) | 0.766 µM (active) | 0.454 µM (active) | 0.144 µM (active) | > 10 µM (inactive) | 2.85 µM (inactive) | 1.3 µM (inactive) | 11.6 µM (inactive) | 0.5 µM (active) | 0.719 µM (active) | 1.78 µM (inactive)
5 | N#Cc1c2c(c(N3CCOCC3)n3c1nc1ccccc13)CCCC2 | 19 µM (inactive) | 23.8 µM (inactive) | 14.8 µM (inactive) | 20.9 µM (inactive) | 16.2 µM (inactive) | 21.8 µM (inactive) | 13.8 µM (inactive) | 17.1 µM (inactive) | 16.4 µM (inactive) | > 100 µM (inactive) | > 100 µM (inactive) | 26.2 µM (inactive) | 8.81 µM (inactive) | 17.9 µM (inactive) | 18.8 µM (inactive) | 20 µM (inactive) | 21.1 µM (inactive) | 23.5 µM (inactive) | 18.7 µM (inactive) | 19.9 µM (inactive)
6 | CN/N=C(\C)C(CN(C)C)C(c1ccccc1)c1c(O)c2ccccc2oc1=O (stereo not given) | > 100 µM (inactive) | > 100 µM (inactive) | > 100 µM (inactive) | 40.4 µM (inactive) | > 100 µM (inactive) | > 100 µM (inactive) | 29.7 µM (inactive) | 0.0574 µM (active) | > 100 µM (inactive) | > 100 µM (inactive) | > 100 µM (inactive) | > 100 µM (inactive) | 75.5 µM (inactive) | > 100 µM (inactive) | 49.5 µM (inactive) | 99.1 µM (inactive) | > 100 µM (inactive) | > 100 µM (inactive) | > 100 µM (inactive) | > 100 µM (inactive)
7 | CCN1CCC(O)(/C=C/c2cccc(C)c2)C(C(=O)/C=C/c2cccc(C)c2)C1 (stereo not given) | 2.03 µM (inactive) | 2.29 µM (inactive) | 1.59 µM (inactive) | 1.95 µM (inactive) | 2.04 µM (inactive) | 1.6 µM (inactive) | 61.4 µM (inactive) | 2.17 µM (inactive) | 1.52 µM (inactive) | 2.33 µM (inactive) | 1.56 µM (inactive) | 1.9 µM (inactive) | 2.43 µM (inactive) | 2.19 µM (inactive) | 3.48 µM (inactive) | 4.31 µM (inactive) | 2.64 µM (inactive) | 2.19 µM (inactive) | 1.88 µM (inactive) | 2.47 µM (inactive)
8 | C=C1C(=O)OC2/C=C(/C)C(OC(C)=O)CC(O)/C(C)=C\C(OC(=O)/C(C)=C\C)C12 (stereo not given) | > 100 µM (inactive) | > 100 µM (inactive) | 42.8 µM (inactive) | 34.4 µM (inactive) | 78 µM (inactive) | > 100 µM (inactive) | 17 µM (inactive) | 43.6 µM (inactive) | 66.1 µM (inactive) | > 100 µM (inactive) | > 100 µM (inactive) | 34 µM (inactive) | 29.6 µM (inactive) | 58.9 µM (inactive) | 46.6 µM (inactive) | > 100 µM (inactive) | > 100 µM (inactive) | 43.2 µM (inactive) | > 100 µM (inactive) | 50.6 µM (inactive)
9 | COc1cc(C(=O)O[C@@H]2[C@@H](OC(=O)c3cc(OC)c(OC)c(OC)c3)[C@@H](OC)O[C@@H]3CO[C@@H](c4ccccc4)O[C@@H]23)cc(OC)c1OC | > 100 µM (inactive) | > 100 µM (inactive) | > 100 µM (inactive) | > 100 µM (inactive) | > 100 µM (inactive) | > 100 µM (inactive) | > 100 µM (inactive) | > 100 µM (inactive) | > 100 µM (inactive) | > 100 µM (inactive) | > 100 µM (inactive) | > 100 µM (inactive) | > 100 µM (inactive) | > 100 µM (inactive) | > 100 µM (inactive) | > 100 µM (inactive) | > 100 µM (inactive) | > 100 µM (inactive) | > 100 µM (inactive) | > 100 µM (inactive)
10 | COc1c(OC)c(OC)c(C(=O)/C=C/c2ccccc2)c(OC)c1OC | 4.28 µM (inactive) | 12.5 µM (inactive) | 11.7 µM (inactive) | 14.2 µM (inactive) | 13.9 µM (inactive) | 14.7 µM (inactive) | 7.11 µM (inactive) | 3.13 µM (inactive) | 4.47 µM (inactive) | 4.32 µM (inactive) | 4.1 µM (inactive) | 5.82 µM (inactive) | 8.83 µM (inactive) | 11.5 µM (inactive) | 9.29 µM (inactive) | 5.97 µM (inactive) | 16.5 µM (inactive) | 13.4 µM (inactive) | 13.5 µM (inactive) | 10.6 µM (inactive)
11 | CCC(C)NC(=S)N/N=C(\C)c1ccccn1 (stereo not given) | 0.102 µM (active) | 0.0946 µM (active) | < 0.01 µM (active) | < 0.01 µM (active) | < 0.01 µM (active) | 0.447 µM (active) | < 0.01 µM (active) | 0.14 µM (active) | < 0.01 µM (active) | 0.396 µM (active) | 0.156 µM (active) | < 0.01 µM (active) | < 0.01 µM (active) | < 0.01 µM (active) | < 0.01 µM (active) | 1.31 µM (inactive) | 0.0991 µM (active) | 1.91 µM (inactive) | 0.155 µM (active) | 0.893 µM (active)
12 | COc1cc(/C=C/C(=O)c2c([O-])on[n+]2-c2ccccc2)ccc1O | 7.46 µM (inactive) | 4.09 µM (inactive) | 2.32 µM (inactive) | 12.1 µM (inactive) | 3.72 µM (inactive) | 2.27 µM (inactive) | 0.853 µM (active) | 2.4 µM (inactive) | 2.37 µM (inactive) | 2.43 µM (inactive) | 2.31 µM (inactive) | 3.49 µM (inactive) | 2.2 µM (inactive) | 2.48 µM (inactive) | 2.29 µM (inactive) | 1.9 µM (inactive) | 11 µM (inactive) | 2.62 µM (inactive) | 3.78 µM (inactive) | 2.03 µM (inactive)
13 | CC1OC2(CC(OCc3ccccc3)C1OCc1ccccc1)OCCO2 (stereo not given) | 12.8 µM (inactive) | 50.7 µM (inactive) | 61.8 µM (inactive) | 62.1 µM (inactive) | 35.6 µM (inactive) | 71.8 µM (inactive) | 20 µM (inactive) | 49.9 µM (inactive) | 20.9 µM (inactive) | 17.4 µM (inactive) | 63.7 µM (inactive) | 66.2 µM (inactive) | 27.3 µM (inactive) | 39.1 µM (inactive) | > 100 µM (inactive) | 76.7 µM (inactive) | 51.3 µM (inactive) | > 100 µM (inactive) | 33 µM (inactive) | 21.4 µM (inactive)
14 | COc1cc2c(/C=C3/C(=O)N(c4ccccc4)c4ccccc43)c(Cl)[nH]c2cc1C | 6.46 µM (inactive) | 3.41 µM (inactive) | 3.44 µM (inactive) | 1.9 µM (inactive) | 3.6 µM (inactive) | 2.37 µM (inactive) | 2.31 µM (inactive) | 4.44 µM (inactive) | 3.09 µM (inactive) | 4.56 µM (inactive) | 2.14 µM (inactive) | 3.01 µM (inactive) | 2.56 µM (inactive) | 2.11 µM (inactive) | 1.99 µM (inactive) | 2.59 µM (inactive) | 3.45 µM (inactive) | 3.57 µM (inactive) | 2.32 µM (inactive) | 2.31 µM (inactive)
